# Values joined by “and” are separate entries in the source; they are usually repeats but may differ in a detail not shown here. Equal entries are not always repeated. Where two headings read alike, the source gives them in different places.
# Legend:
# fouling = experiment: Anti-fouling panel exposure in the ocean at Daytona Beach, rating 0 to 10; conditions: for General Rating, 6 Mos. / General Rating, 1 Mo. / General Rating, 4 Mos.: Example 15, Table 7, agent as is
# From the text: Test panels were 15.24 cm×30.48 cm (6 in×12 in) in dimension and were constructed of a white plastic top surface and a black plastic bottom surface. The test panels were coated on both sides with the two formulations above-tabulated at a film thickness of about 5 mils dry. The test panels then were exposed horizontally with the white surface upward and the black surface downward in the ocean at Daytona Beach, Fla., U.S.A. A control panel consisted of 12 wt-% triphenyl tin hydroxide dispersed in a resinous vinyl binder (80 wt-parts of a vinyl chloride polymer, VAGH brand, Union Carbide Corporation, New York, N.Y.) reduced in methyl ethyl ketone solvent to 50% solids content. After exposure, the control and test panels were inspected and assigned a numerical rating from 0 to 10 based on the amount of surface area of the panel that was free from fouling, a rating of "10" corresponding to perfect protection. The following results were recorded.
# rats or mice = conditions: cited from earlier work
# rats = conditions: oral; cited from earlier work
# fish = conditions: in words; cited from earlier work
# mammalian = conditions: in words; cited from earlier work
# [1] = SEM / Energy Dispersion Spectroscopy analysis of cured epoxy resin; type: physicochemical; conditions: Example 16, Sample 2 (FIG. 2); EDS
# From the text: An epoxy resin system was examined for its ability to be modified so as to preferentially influence the concentration or location of an anti-fouling agent (Nopocide N-96, see Example 1) within its structure. A direct comparison was made between an epoxy resin (EPON 828 epoxy resin, diglycidyl ether of bis-phenol A, Shell Chemical Company) and the same epoxy resin containing a domain structuring polymeric material, such as a polysulfide resin (LP-32 polysulfide resin, Thiokol Corporation). Both systems contained the same anti-fouling agent. The compositions formulated are set forth below: […]
# [2] = Example 14, Table 6, additive at 20 wt-%
# [3] = Example 12, Table 4, additive at 20 wt-%
# [4] = listed as 2,3-Dichloro-1,4-Naphthaquinone
# [5] = Example 11, Table 3, additive at 20 wt-%, 10 is perfect protection
# [6] = Example 10, 20 wt-% in Control Paint, 10 is perfect protection
# [7] = Example 13, Table 5, additive at 20 wt-%
smiles,measurement,setting,value
O=C(Nc1cccc2c(NC(=O)n3ccnc3)cccc12)n1ccnc1,"Rating After Exposure, 1 Months",fouling; [2],6-7
same,"Rating After Exposure, 4 Months",fouling; [2],0
"O=C1OC(=O)C2C1C1(Cl)C(Cl)=C(Cl)C2(Cl)C1(Cl)Cl (centres unmarked) [1,4,5,6,7,7-hexachloro-5-norborene-2,3-dicarboxylic anhydride]","Rating After Exposure, 4 Months",fouling; [3],0
"O=C1C(Cl)=C(Cl)C(=O)c2ccccc21 [2,3-dichloro-1,4-napthoquinone]","General Rating, 6 Mos.",fouling,0
same,"General Rating, 1 Mo.",fouling; [4],7 and 5
same,"General Rating, 4 Mos.",fouling; [4],6 and 3
"Nc1cc(Cl)ccc1Cl [2,5-Dichloroaniline]","Rating After Exposure, 4 Months",fouling; [5],0
same,"Rating After Exposure, 462 Days",fouling; [5],0
"Nc1cc(Cl)cc(C(=O)O)c1Cl [2,5-dichloro,3-amino benzoic acid]",LD50 value,"rats or mice; in vivo, po","5,620"
"Nc1c(Cl)cc([N+](=O)[O-])cc1Cl [2,-6-dichloro, 4-nitroaniline]","Rating After Exposure, 4 Months",fouling; [5],0
same,"Rating After Exposure, 462 Days",fouling; [5],0
C=C(Cl)CSC(=S)N(CC)CC [2-chloro-2-propenyl diethylcarbamodithioate],LD50 value,"rats or mice; in vivo, po",850
"C=CCN(CC=C)C(=O)CCl [2-chloro-N,N-diallylacetamide]",LD50 value,rats,700 mg/kg
same,"General Rating, 1 Mo.",fouling,5
same,"General Rating, 4 Mos.",fouling,4
same,"General Rating, 6 Mos.",fouling,0
same,LD50 value,"rats or mice; species not given, in mg/kg",750
CCNc1nc(Cl)nc(NC(C)C)n1 [2-isopropylamino-4-chloro-6-ethylamino triazine],LD50 value,rats,1869 mg/kg
"Nc1ccc(Cl)c(Cl)c1 [3,4-Dichloroaniline]","Rating After Exposure, 4 Months",fouling; [5],0
same,"Rating After Exposure, 462 Days",fouling; [5],0
"CN(C)C(=O)Nc1ccc(Cl)c(Cl)c1 [3-(3,4-Dichlorophenyl)-1,1-dimethyl urea]","Rating After Exposure, 1 Months",fouling; [2],9
same,"Rating After Exposure, 4 Months",fouling; [2],0
"C=CCc1ccc(O)c(OC)c1 [Eugenol, 4-allyl-2-methoxyphenol]",LD50 value,rats,"2,000 mg/kg"
same,"General Rating, 1 Mo.",fouling,9 and 7
same,"General Rating, 4 Mos.",fouling,3
same,"General Rating, 6 Mos.",fouling,0
"N#Cc1c(Cl)c(Cl)c(Cl)c(Cl)c1C#N [Nopocide, 1,2-dicyano, tetrachlorobenzene]","Rating After Exposure, 4 Months",fouling; [6],0
same,"Rating After Exposure, 462 Days",fouling; [6],0
c1ccc2c(c1)Nc1ccccc1S2 [Phenothiazine],"Rating After Exposure, 4 Months",fouling; [3],0
"C#CC(C)(C)NC(=O)c1cc(Cl)cc(Cl)c1 [Pronamide, 3,5-dichloro-N-(3,3-dimethylpropyne)benzamide]","Rating After Exposure, 1 Months",fouling; [7],0
same,"Rating After Exposure, 4 Months",fouling; [7],0
"C=CCC1=C(C)C(OC(=O)C2C(C=C(C)C)C2(C)C)CC1=O (centres unmarked) [allyl, methylhydroxy substituted cyclopententone ester of dimethylpropenyl cyclopropane carboxylic acid]",LD50 value,"rats or mice; species not given, in mg/kg","1,000"
"Nc1cnn(-c2ccccc2)c(=O)c1Cl [amino, chloro, phenyl derivative of azacyclohexamine]",LD50 value,"rats or mice; species not given, in mg/kg","3,030"
O=C(O)CNCP(=O)(O)O [aminoacetic acid derivative of methylphosphonate],LD50 value,"rats or mice; species not given, in mg/kg","4,300"
OB(O)O [boric acid],LD50 value,rats,"3,000 mg/kg"
same,anti-fouling activity,fouling; in words,quite active as an anti-fouling agent
CCCCCCCCCCCCCCCC[n+]1ccccc1 [cetylpyridinium chloride],LD50 value,rats,200 mg/kg
CCCCCCCCCCCCCCCC[N+](C)(C)C.[Br-] [cetyltrimethylammonium bromide],LD50 value,rats,500 mg/kg
C=CCC1=C(C)C(OC(=O)[C@@H]2[C@@H](C=C(C)C)C2(C)C)CC1=O (stereo partly drawn) [d-Trans-Allerthrin],"Rating After Exposure, 1 Months",fouling; [7],0-1
same,"Rating After Exposure, 4 Months",fouling; [7],0
COP(=S)(OC)Oc1ccc(Sc2ccc(OP(=S)(OC)OC)cc2)cc1 [dimethoxythiophosphate derivative of diphenyl sulfide],LD50 value,rats,2030 mg/kg
C#CCOS(=O)OC1CCCCC1Oc1ccc(C(C)(C)C)cc1 (centres unmarked) [dimethylethylphenoxy-cyclohexyl-2-propynyl sulfite],LD50 value,"rats or mice; species not given, in mg/kg","2,200"
"CC(C)C(C(=O)OC(C#N)c1cccc(Oc2ccccc2)c1)c1ccc(Cl)cc1 (centres unmarked) [diphenyl ether, chlorophenyl derivative of the isobutyric acid ester of hydroxyacetonitrile]",toxicity to fish,fish,toxic to fish
same,LD50 value,"rats or mice; in vivo, po",451
c1ccc(Nc2ccccc2)cc1 [diphenylamine],"General Rating, 1 Mo.",fouling,5
same,"General Rating, 6 Mos.",fouling,0
same,"General Rating, 4 Mos.",fouling; listed as Diphenylanaline,4 and 3
same,mammalian toxicity,mammalian,Low mammalian toxicity
CCCCCCCCCCCCNC(=N)N [dodecylguanidine monoacetate],LD50 value,"rats or mice; species not given, in mg/kg","1,000"
CCOC(=O)C(O)(c1ccc(Cl)cc1)c1ccc(Cl)cc1 [ethyl 4-chloro-alpha(4-chlorophenyl)alpha-hydroxy benzene acetate],LD50 value,rats,"5,000 mg/kg"
Oc1c(Cl)cc(Cl)c(Cl)c1Cc1c(O)c(Cl)cc(Cl)c1Cl [hexachlorophene],chlorine concentration in round island domains,[1],48%
same,chlorine concentration in sea-like domains,[1],36%
"CCN(CC)c1nc(C)cc(OP(=S)(OC)OC)n1 [methyl, diethylamino, dimethoxythiophosphate derivative of pyrimidine]",LD50 value,rats,"2,000 mg/kg"
NC(=O)Cc1cccc2ccccc12 [napthalene acetamide],LD50 value,"rats or mice; in vivo, po","1,000"
Oc1ccccc1-c1ccccc1 [o-phenylphenol],LD50 value,"rats or mice; species not given, in mg/kg","2,700"
O=C(O)Cc1c(Cl)ccc(Cl)c1Cl [trichlorophenyl acetic acid],LD50 value,"rats or mice; species not given, in mg/kg","1,780"
